Measured values taken from patent US20240197650A1, “Combination of Cinnamaldheyde and Eugenol with Antimycotic Activity” (priority 2021, published 2024).

Key:
Assay type in all cases: cell-based
Candida spp. = assay: Disk diffusion method, 18 Candida spp. strains (distribution)
Procedure: (§1) A total of eighteen strains belonging to Candida spp. (15 C. albicans, 2 C. glabrata and 1 C. lusitaniae) derived from a collection of vaginal strains isolated in CHROMAgar Candida (BD Italia SpA, Milan, Italy) were grown on Potato Dextrose Agar (Oxoid Thermofisher SpA, Milan, Italy) at 35° C. for 24 hours.
(§2) Colonies were re-suspended in sterile saline at a density corresponding to #0.5 McFarland (opacity standard). #0.5 McF correspond to 1.4×10^6 colony forming units (CFU)/ml for C. albicans, 4.3×10^6 CFU/ml for C. glabrata and 3×10^6 CFU/ml for C. lusitaniae [Guinea J. et al., Rapid antifungal susceptibility determination for yeast isolates by use of Etest performed directly on blood samples from patients with fungemia, J Clin Microbiol. 2010 June, 48(6): 2205-12]. Then, the sensitivity test vs the two oils has been performed. The disk diffusion method was carried out as follows: for each tested strain, 4 plates of Potato Dextrose Agar (PDA) were seeded in 3 directions to produce a confluent growth, by sterile swab soaked in the cell suspension. Sorbent paper disks (Oxoid Thermofisher SpA, Milan, Italy) 6.0 mm diameter were placed on the agar surface and added with 10 μl of each essential oil. Disks soaked with 10 μg amphotericin B were used as positive control. Also disks of chlortrimazole (from 10 μg to 40 μg) were used, but the inhibition rings could not be clearly read due to the formation of a re-growth ring. Disks soaked with 10 μl pure dimethylsulphoxide (DMSO, Sigma-Aldrich, St. Louis, MO, USA) were used as negative control. The plates were incubated at 35° C. for 24 hours. All the experiments were carried out in duplicate. The inhibiting effect of the oils were considered to be effective when the inhibition ring was equal or greater than that caused by amphotericin B. For amphotericin B, an inhibition zone (IZ)≥15 mm was considered as “sensitivity”, from 10 to 14 mm as “intermediate sensitivity” and <10 mm as “resistance” [Kauser et al., Agreement of Direct Antifungal Susceptibility Testing from Positive Blood Culture Bottles with Conventional Method for Candida Species, J Clin Microbiol. 2016 February, 54(2):343-34].

C. albicans [1] = assay: Disk diffusion method, C. albicans strains
Procedure: as §1, §2

C. glabrata = assay: Disk diffusion method, C. glabrata strains
Procedure: as §1, §2

C. lusitaniae [2] = assay: Disk diffusion method, C. lusitaniae strain; settings: C. lusitaniae 1
Procedure: as §1
Colonies were re-suspended in sterile saline at a density corresponding to #0.5 McFarland (opacity standard). #0.5 McF correspond to 1.4×10^6 colony forming units (CFU)/ml for C. albicans, 4.3×10^6 CFU/ml for C. glabrata and 3×10^6 CFU/ml for C. lusitaniae [Guinea J. et al., Rapid antifungal susceptibility determination for yeast isolates by use of Etest performed directly on blood samples from patients with fungemia, J Clin Microbiol. 2010 June, 48(6): 2205-12]. Then, the sensitivity test vs the two oils has been performed. The disk diffusion method was carried out as follows: for each tested strain, 4 plates of Potato Dextrose Agar (PDA) were seeded in 3 directions to produce a confluent growth, by sterile swab soaked in the cell suspension. Sorbent paper disks (Oxoid Thermofisher SpA, Milan, Italy) 6.0 mm diameter were placed on the agar surface and added with 10 μl of each essential oil. Disks soaked with 10 μg amphotericin B were used as positive control. Also disks of chlortrimazole (from 10 μg to 40 μg) were used, but the inhibition rings could not be clearly read due to the formation of a re-growth ring. Disks soaked with 10 μl pure dimethylsulphoxide (DMSO, Sigma-Aldrich, St. Louis, MO, USA) were used as negative control. The plates were incubated at 35° C. for 24 hours. All the experiments were carried out in duplicate. […]

C. albicans [3] = assay: Microdilution method MIC/MFC, C. albicans strains
Procedure: as §1
(§3) The antifungal activity of amphotericin B and of cinnamaldheyde and eugenol were tested with the microdilution method as reported by Bona et al. [Bona et al., Sensitivity of Candida albicans to essential oils: are they an alternative to antifungal agents? J Appl Microbiol. 2016 December, 121(6): 1530-1545] with small changes. All the 18 Candida spp strains were tested. For each isolated, the colonies deriving from cultures (24 hours) in PDA were diluted in saline up to a concentration of 2×10^3 CFU/ml (so obtaining a final concentration of 10 3CGU/ml). Cinnamaldehyde and eugenol were dissolved in DMSO (80% oil, 20% DMSO), then diluted in Sabouraud broth up to a concentration of 8% v/v (so obtaining a final concentration of 4% v/v). Then, in a 96-well microtiter plate ½ serial dilution of amphotericin B (range 32-0.032 μg/ml, for a final range of 16-0.016 μg/ml) and of the essential oils (range 8-0.004% v/v, for a final range of 4-0.002% v/v) were carried out. Each well was then injected with 100 μl of cell suspension. The negative control contained DMSO diluted in Sabouraud broth (at 2% v/v, for a final concentration of 1% v/v). […] Each experiment was carried out in duplicate. The Minimum Inhibitory Concentration (MIC) was determined as the concentration of the oils in the first well which is not cloudy. The Minimum Fungicidal Concentration (MFC) was determined as the lowest concentration of the oils, with the agar culture showing the complete absence of fungal growth. The determination of the amphotericin B MIC was carried out also according to the EUCAST guidelines (cutoff 1 μg/ml) [https://eucast.org/astoffungi/clinicalbreakpointsforantifungals], all the results being consistent.

C. lusitaniae [4] = assay: Microdilution method MIC/MFC, C. lusitaniae strain; settings: C. lusitaniae 1
Procedure: as §1, §3

[5] = 18 strains, disk 10 μl oil or 10 μg amphotericin B, 35° C. 24 hours
[6] = disks soaked with the oils separately

## O=CC=Cc1ccccc1 [Cinnamaldheyde, cinnamaldehyde]
Candida spp.; [5]
  inhibition rings diameter, average (including 6.0 mm of the disk): 69 mm
  inhibition rings diameter, range (including 6.0 mm of the disk): 55-75 mm
Candida spp.; [6]
  inhibition of the tested Candida strains (words): inhibited all tested strains
  inhibition rings compared with those caused by amphotericin B (10 μg): notably greater
Candida spp.; disks soaked with the oils separately, listed as cinnamaldheyde
  inhibition of the tested Candida strains (words): inhibited the growth of all tested Candida strains
Candida spp.; ring equal or greater than that of amphotericin B, 18 strains
  % inhibited strains: 100% (18/18)
C. albicans [1]; C. albicans 1
  Diameters of the inhibition rings (including 6.0 mm of the disk): 65.0 mm
C. albicans [1]; C. albicans 2
  Diameters of the inhibition rings (including 6.0 mm of the disk): 70.0 mm
C. albicans [1]; C. albicans 3
  Diameters of the inhibition rings (including 6.0 mm of the disk): 67.0 mm
C. albicans [1]; C. albicans 4
  Diameters of the inhibition rings (including 6.0 mm of the disk): 66.0 mm
C. albicans [1]; C. albicans 5
  Diameters of the inhibition rings (including 6.0 mm of the disk): 71.0 mm
C. albicans [1]; C. albicans 6
  Diameters of the inhibition rings (including 6.0 mm of the disk): 67.0 mm
C. albicans [1]; C. albicans 7
  Diameters of the inhibition rings (including 6.0 mm of the disk): 75.0 mm
C. albicans [1]; C. albicans 8
  Diameters of the inhibition rings (including 6.0 mm of the disk): 67.0 mm
C. albicans [1]; C. albicans 9
  Diameters of the inhibition rings (including 6.0 mm of the disk): 70.5 mm
C. albicans [1]; C. albicans 10
  Diameters of the inhibition rings (including 6.0 mm of the disk): 72.5 mm
C. albicans [1]; C. albicans 11
  Diameters of the inhibition rings (including 6.0 mm of the disk): 75.0 mm
C. albicans [1]; C. albicans 12
  Diameters of the inhibition rings (including 6.0 mm of the disk): 75.0 mm
C. albicans [1]; C. albicans 13
  Diameters of the inhibition rings (including 6.0 mm of the disk): 71.0 mm
C. albicans [1]; C. albicans 14
  Diameters of the inhibition rings (including 6.0 mm of the disk): 75.0 mm
C. albicans [1]; C. albicans 15
  Diameters of the inhibition rings (including 6.0 mm of the disk): 70.0 mm
C. glabrata; C. glabrata 1
  Diameters of the inhibition rings (including 6.0 mm of the disk): 55.0 mm
C. glabrata; C. glabrata 2
  Diameters of the inhibition rings (including 6.0 mm of the disk): 55.0 mm
C. lusitaniae [2]
  Diameters of the inhibition rings (including 6.0 mm of the disk): 75.0 mm
C. albicans [3]; C. albicans 1
  MFC: 0.008 % v/v
  MIC: 0.004 % v/v
C. albicans [3]; C. albicans 2
  MFC: 0.008 % v/v
  MIC: 0.004 % v/v
C. albicans [3]; C. albicans 3
  MFC: 0.004 % v/v
  MIC: 0.004 % v/v
C. albicans [3]; C. albicans 4
  MFC: 0.008 % v/v
  MIC: ≤0.002 % v/v
C. albicans [3]; C. albicans 5
  MFC: 0.004 % v/v
  MIC: 0.004 % v/v
C. albicans [3]; C. albicans 6
  MFC: 0.008 % v/v
  MIC: 0.004 % v/v
C. albicans [3]; C. albicans 7
  MFC: 0.008 % v/v
  MIC: ≤0.002 % v/v
C. albicans [3]; C. albicans 8
  MFC: 0.008 % v/v
  MIC: 0.004 % v/v
C. albicans [3]; C. albicans 9
  MFC: 0.064 % v/v
  MIC: 0.016 % v/v
C. albicans [3]; C. albicans 10
  MFC: ≤0.002 % v/v
  MIC: ≤0.002 % v/v
C. albicans [3]; C. albicans 11
  MFC: ≤0.002 % v/v
  MIC: ≤0.002 % v/v
C. albicans [3]; C. albicans 12
  MFC: ≤0.002 % v/v
  MIC: ≤0.002 % v/v
C. albicans [3]; C. albicans 13
  MFC: 0.016 % v/v
  MIC: 0.008 % v/v
C. albicans [3]; C. albicans 14
  MFC: 0.016 % v/v
  MIC: 0.004 % v/v
C. albicans [3]; C. albicans 15
  MFC: 0.008 % v/v
  MIC: 0.004 % v/v
C. lusitaniae [4]
  MFC: ≤0.002 % v/v
  MIC: ≤0.002 % v/v
